# Assay results taken from article PMC12165799, “Antimicrobial peptide developed with machine learning sequence optimization targets drug resistant Staphylococcus aureus in mice” (The Journal of Clinical Investigation, 2025).
# Experiments:
# [1] = test system: S. aureus MW2 (MRSA) exponential and persister cells; test: S. aureus persister cell and time-kill assays (MW2); format: cell-based, Staphylococcus aureus; conditions: within 120 minutes; ciprofloxacin 10 μg/mL, bithionol 10 μg/mL
# Procedure: (§1) 305 Minimal inhibitory concentration (MIC) assay
# (§2) We made serial dilutions of 10×
# (§3) We determined the MIC using OD600
# (§4) Accordingly, we added 150 mM NaCl,
# (§5) 319 established protocol (5).
# (§6) 323 aureus VRS1) in PBS. To assess the killing kinetics of CIT-8 in persister cells, we added 1 ml of
# (§7) 324 cell suspension to the wells of a 2-ml deep-well assay block (Cat no. 3960, Corning, NY, USA)
# (§8) We also included ciprofloxacin (at 10 μg/ml) for S.
# (§9) 326 aureus MW2 and linezolid (100 μg/ml) for S. aureus VRS1 as antibiotic controls. Additionally,
# (§10) 327 we included bithionol (at 10 μg/ml) as a positive control, known for its ability to kill stationary
# (§11) 328 phase persister cells (6). We incubated the plates at 37°C, with shaking at 225 rpm. At specific
# (§12) 329 times (0, 15, 30, 60, and 120 min), we collected 10 μl samples, diluted them serially, and then
# (§13) 330 plated them on tryptic soy agar (TSA) (BD Difco, NJ, USA) plates. We incubated the TSA plates
# (§14) 331 for 18 hours at 37°C for colony counting. We performed these experiments in duplicate. As a
# (§15) 332 comparison, we prepared the exponential cells of S. aureus MW2 and VRS1 in PBS and analyzed
# (§16) 333 their killing kinetics in the same manner as described for persister cells.
# [2] = test system: S. aureus VRS1 (VRSA) exponential and persister cells; test: S. aureus persister cell and time-kill assays (VRS1); format: cell-based, Staphylococcus aureus; conditions: within 120 minutes; bithionol 10 μg/mL, linezolid 100 μg/mL
# Procedure: as §1, §2, §3, §4, §5, §6, §7, §8, §9, §10, §11, §12, §13, §14, §15, §16
# [3] = test system: HepG2 cells; test: Mammalian cell cytotoxicity assay
# Procedure: 410 the HepG2 cells at 37°C in 5% CO2 in Dulbecco’s Modified Eagle Medium (DMEM) (Gibco, MA,
# We harvested and resuspended cells in fresh DMEM
# [4] = test system: S. aureus MW2 skin infection; test: Skin-abraded murine infection, established infection model, bacterial load; format: in vivo, mice; design: Bacterial load from skin specimens, established infection model / bacterial load in skin, Sup. Fig. 12: unit not given here; conditions: for Bacterial load from skin specimens, established infection model: 2% ointment 24 hours after infection; for bacterial load in skin, Sup. Fig. 12: 2%, mice
# Procedure: (§17) 599 In vivo murine skin infection and treatment
# (§18) 600 We used a topical skin-abraded murine infection model with minor modifications to test
# (§19) 601 the in vivo efficacy of the CIT-8 peptide (25). We performed all mouse studies following the
# (§20) 602 protocol approved by the Institutional Animal Care and Use Committee. In brief, we anesthetized
# (§21) 603 female C57BL/6 mice (6 weeks) (Jackson Laboratory, Bar Harbor, ME, USA) with ketamine-
# (§22) 604 xylazine (90 mg/kg ketamine and 10 mg/kg xylazine) via intraperitoneal injection. We shaved the
# (§23) 605 dorsal side of the mice in the middle of the back (area=2 cm2). To disrupt skin integrity, we tape-
# (§24) 606 stripped with Tensoplast® seven times in succession, replacing the tape each time, resulting in
# (§25) 607 visibly damaged skin. We infected the damaged skin area with 1 × 10^7 CFU of S. aureus MW2
# (§26) 608 (exponential phase bacteria in PBS) with an inoculum of 50 µl using a pipette tip. Ten minutes
# (§27) 609 (prophylactic model) and 24 h (established model) after bacterial inoculation, we applied 30 mg
# (§28) 610 of 1 and 2% (w/w) CIT-8 ointment in a white petroleum jelly base (Cat no. 19-090-843, Fisher
# (§29) 611 Scientific, MA, USA) to the skin. We also included animal groups treated with only petroleum
# (§30) 612 jelly or with 2% commercial mupirocin ointment as negative and positive controls, respectively.
# (§31) 613 For pain management, we used the analgesic buprenorphine SR (0.05 mg/kg).
# (§32) 614 After 24 h of treatment, we euthanized the animals, separated the skin from the underlying
# (§33) 615 fascia and muscle tissue, and excised about 2 cm2 of skin from the infected area. We ground the
# (§34) 616 skin in 1ml of PBS buffer (Gibco, MD, USA). We serially diluted 100 µl of the solution in PBS
# (§35) 617 and plated it on Remel™ TSA plates (Fisher, MA, USA) to estimate viable colony counts after 18
# (§36) 618 h of incubation at 37 °C. Further, we added 10 µl of EDTA-Free, protease inhibitor cocktail Set III
# (§37) 619 (Millipore Sigma, MA, USA) to 500 µl of the ground skin PBS solution for cytokine estimation.
# (§38) 620 The Cytokine Core, LLC (Indianapolis, IN, USA) performed the cytokine concentration analysis
# [5] = test system: S. aureus MW2 skin infection; test: Skin-abraded murine infection, prophylactic (acute) model, bacterial load; format: in vivo, mice; conditions: for Bacterial load from skin specimens, prophylactic model: 2% ointment 10 minutes after infection
# Procedure: as §17, §18, §19, §20, §21, §22, §23, §24, §25, §26, §27, §28, §29, §30, §31, §32, §33, §34, §35, §36, §37, §38
# [6] = test system: S. aureus MW2; test: Minimal inhibitory concentration (MIC) assay, broth microdilution; format: cell-based, Staphylococcus aureus; conditions: S. aureus MW2; broth microdilution, TSB, 1 × 10^6 CFU/ml, 37°C 18 h, OD600, duplicate
# Procedure: 300 Synthesis of peptides
# 302 Piscataway, NJ, USA).
# as §1, §2, §3, §4, §5
# [7] = HPLC retention time on C18 reverse-phase column; format: physicochemical
# From the text: Table 1 Physical parameters and minimal inhibitory concentrations of citropin 1.1-derived peptides against S. aureus MW2 | column: rT^D (min)
compound,measurement,setting,value
O=C(O)c1cn(C2CC2)c2cc(N3CCNCC3)c(F)cc2c1=O [Ciprofloxacin],Reduction of MRSA persister cells,[1],did not have any effect
Oc1c(Cl)cc(Cl)cc1Sc1cc(Cl)cc(Cl)c1O [bithionol],Reduction of MRSA persister cells,[1],1.5 logs
same,Reduction of VRSA persister cells,[2],1.5 logs
same,Reduction of exponentially growing VRSA,[2],1.0 logs
"CNC(C)C1CCC(N)C(OC2C(N)CC(N)C(OC3OCC(C)(O)C(NC)C3O)C2O)O1 (centres unmarked) [gentamicin, reference compound]","HepG2 cell viability, Sup. Fig. 4B","[3]; 4 μg/ml, replicate 1",100.314
same,"HepG2 cell viability, Sup. Fig. 4B","[3]; 4 μg/ml, replicate 2",105.383
same,"HepG2 cell viability, Sup. Fig. 4B","[3]; 4 μg/ml, replicate 3",105.587
same,"HepG2 cell viability, Sup. Fig. 4B","[3]; 8 μg/ml, replicate 1",101.846
same,"HepG2 cell viability, Sup. Fig. 4B","[3]; 8 μg/ml, replicate 2",103.015
same,"HepG2 cell viability, Sup. Fig. 4B","[3]; 8 μg/ml, replicate 3",101.846
same,"HepG2 cell viability, Sup. Fig. 4B","[3]; 16 μg/ml, replicate 1",102.511
same,"HepG2 cell viability, Sup. Fig. 4B","[3]; 16 μg/ml, replicate 2",103.671
same,"HepG2 cell viability, Sup. Fig. 4B","[3]; 16 μg/ml, replicate 3",100.107
same,"HepG2 cell viability, Sup. Fig. 4B","[3]; 32 μg/ml, replicate 1",102.999
same,"HepG2 cell viability, Sup. Fig. 4B","[3]; 32 μg/ml, replicate 2",106.118
same,"HepG2 cell viability, Sup. Fig. 4B","[3]; 32 μg/ml, replicate 3",103.265
same,"HepG2 cell viability, Sup. Fig. 4B","[3]; 64 μg/ml, replicate 1",103.75
same,"HepG2 cell viability, Sup. Fig. 4B","[3]; 64 μg/ml, replicate 2",104.801
same,"HepG2 cell viability, Sup. Fig. 4B","[3]; 64 μg/ml, replicate 3",97.7499
same,"HepG2 cell viability, Sup. Fig. 4B","[3]; 128 μg/ml, replicate 1",104.41
same,"HepG2 cell viability, Sup. Fig. 4B","[3]; 128 μg/ml, replicate 2",112.88
same,"HepG2 cell viability, Sup. Fig. 4B","[3]; 128 μg/ml, replicate 3",101.795
CC(=O)NC[C@H]1CN(c2ccc(N3CCOCC3)c(F)c2)C(=O)O1 [linezolid],Reduction of VRSA persister cells,[2],no impact
same,Reduction of exponentially growing VRSA,[2],0.7 logs
"C/C(=C\C(=O)OCCCCCCCCC(=O)O)C[C@@H]1OC[C@H](C[C@@H]2O[C@H]2[C@@H](C)[C@H](C)O)[C@@H](O)[C@H]1O [mupirocin, reference compound]","Bacterial load from skin specimens, established infection model",[4]; animal 1,5546493
same,"Bacterial load from skin specimens, established infection model",[4]; animal 2,5663717
same,"Bacterial load from skin specimens, established infection model",[4]; animal 3,38314176
same,"Bacterial load from skin specimens, established infection model",[4]; animal 4,4793289
same,"Bacterial load from skin specimens, established infection model",[4]; animal 5,8342990
same,"Bacterial load from skin specimens, established infection model",[4]; animal 6,7083333
same,"Bacterial load from skin specimens, established infection model",[4]; animal 7,21857924
same,"Bacterial load from skin specimens, established infection model",[4]; animal 8,14962594
same,"Reduction of S. aureus MW2 vs vehicle, established infection model","[4]; 2% w/w ointment, single dose 24 hours after inoculation, n = 8",2.4 log
same,"bacterial load in skin, Sup. Fig. 12",[4]; animal 1,84745.8
same,"bacterial load in skin, Sup. Fig. 12",[4]; animal 2,264317
same,"bacterial load in skin, Sup. Fig. 12",[4]; animal 3,520833
same,"bacterial load in skin, Sup. Fig. 12",[4]; animal 4,633914
same,"bacterial load in skin, Sup. Fig. 12",[4]; animal 5,864198
same,"bacterial load in skin, Sup. Fig. 12",[4]; animal 6,285714
same,"bacterial load in skin, Sup. Fig. 12",[4]; animal 7,1465201
same,"bacterial load in skin, Sup. Fig. 12",[4]; animal 8,754717
same,"Bacterial load from skin specimens, prophylactic model",[5]; animal 1,500000
same,"Bacterial load from skin specimens, prophylactic model",[5]; animal 2,380952
same,"Bacterial load from skin specimens, prophylactic model",[5]; animal 3,320000
same,"Bacterial load from skin specimens, prophylactic model",[5]; animal 4,47058.8
same,"Bacterial load from skin specimens, prophylactic model",[5]; animal 5,200000
same,"Bacterial load from skin specimens, prophylactic model",[5]; animal 6,34782.6
same,"Bacterial load from skin specimens, prophylactic model",[5]; animal 7,176000
same,"Bacterial load from skin specimens, prophylactic model",[5]; animal 8,533333
same,"Bacterial load from skin specimens, prophylactic model",[5]; animal 9,769231
same,"Bacterial load from skin specimens, prophylactic model",[5]; animal 10,1538462
same,"Bacterial load from skin specimens, prophylactic model",[5]; animal 11,289655
same,"Bacterial load from skin specimens, prophylactic model",[5]; animal 12,252632
same,"Reduction of S. aureus MW2 burden vs vehicle, prophylactic model","[5]; 2% w/w ointment, single treatment 10 minutes after inoculation, n = 12",2.8 log
H-GLFDVIKKLLSVI-NH2 [CIT-5],MIC SA,[6],> 32 µg/mL
same,rT (HPLC retention time),[7],22.300 min
H-GLFDVIKKVASVI-NH2 [CIT-1],MIC SA,[6],> 32 µg/mL
same,rT (HPLC retention time),[7],17.570 min
H-GLFKVIKKLLSVI-NH2 [CIT-7],MIC SA,[6],4 µg/mL
same,rT (HPLC retention time),[7],19.956 min
H-GLFKVIKKVAKVI-NH2 [CIT-4],MIC SA,[6],> 32 µg/mL
same,rT (HPLC retention time),[7],17.776 min
H-GLFKVIKKVASVI-NH2 [CIT-3],MIC SA,[6],> 32 µg/mL
same,rT (HPLC retention time),[7],17.400 min
H-GLFSVIKKLLSVI-NH2 [CIT-6],MIC SA,[6],2 µg/mL
same,rT (HPLC retention time),[7],23.302 min
H-GLFSVIKKVASVI-NH2 [CIT-2],MIC SA,[6],> 32 µg/mL
same,rT (HPLC retention time),[7],15.711 min
